Test results from publication PMC11618438 (ACS Omega, 2024).

Assays:
[1] = biological target: T1, human ERα (Homo sapiens, UniProt P03372); assay: cell-based
T1 sequence (P03372 1-595): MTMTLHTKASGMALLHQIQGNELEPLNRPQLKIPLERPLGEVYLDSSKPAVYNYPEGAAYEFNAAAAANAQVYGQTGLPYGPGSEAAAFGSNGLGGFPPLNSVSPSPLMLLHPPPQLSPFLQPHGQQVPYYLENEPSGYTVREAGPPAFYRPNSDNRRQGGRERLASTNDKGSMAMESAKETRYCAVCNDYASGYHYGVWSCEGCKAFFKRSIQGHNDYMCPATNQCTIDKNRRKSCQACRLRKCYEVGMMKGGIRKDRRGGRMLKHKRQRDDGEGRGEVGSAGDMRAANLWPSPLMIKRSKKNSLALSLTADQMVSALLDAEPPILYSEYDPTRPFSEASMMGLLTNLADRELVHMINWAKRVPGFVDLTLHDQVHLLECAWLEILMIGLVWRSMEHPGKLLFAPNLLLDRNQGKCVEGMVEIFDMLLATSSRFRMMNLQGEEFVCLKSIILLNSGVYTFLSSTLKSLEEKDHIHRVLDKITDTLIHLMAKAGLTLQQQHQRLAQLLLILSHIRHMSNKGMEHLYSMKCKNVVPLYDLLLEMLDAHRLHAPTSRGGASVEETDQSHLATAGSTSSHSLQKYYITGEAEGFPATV

[2] = biological target: T2, MT1 (Homo sapiens, UniProt P48039); assay: β-arrestin2 recruitment BRET assay in HEK293 cells; format: cell-based; details: for effect on ß-arrestin recruitment: Figure S2C; for EC50: hMT1 HEK293 cells, BRET
[3] = system: MDA-MB-231; assay: Cell survival by MTT assay, MDA-MB-231; format: cell-based; details: IC50 MLT+TAM versus IC50 compound
[4] = biological target: T2, MT1; assay: cAMP accumulation assay, forskolin-stimulated HEK293 cells; format: cell-based; details: for EC50: hMT1 HEK293 cells, 1 μM forskolin
[5] = biological target: T2, MT1; assay: 2-[125I]-iodomelatonin competition binding assay, membranes of HEK293 cells; details: for Ki: 2-[125I]MLT binding assay, hMT1 stably expressed in HEK293 cells; for drop in binding affinity: MT1, relative to 19c
[6] = biological target: T2, MT1; assay: ERK activation; format: cell-based; details: for EC50: hMT1 cells, 5 min stimulation
[7] = system: HT-1080; assay: Cell survival by MTT assay, HT-1080; format: cell-based; details: IC50 MLT+TAM versus IC50 compound
[8] = system: human MT1 receptors expressed in CHO cells; details: [125I]-iodomelatonin; cited from earlier work
[9] = pEC50 ± S.E.M., ß-arrestin recruitment
[10] = pEC50 ± S.E.M., cAMP accumulation

T2 sequence (P48039 whole entry): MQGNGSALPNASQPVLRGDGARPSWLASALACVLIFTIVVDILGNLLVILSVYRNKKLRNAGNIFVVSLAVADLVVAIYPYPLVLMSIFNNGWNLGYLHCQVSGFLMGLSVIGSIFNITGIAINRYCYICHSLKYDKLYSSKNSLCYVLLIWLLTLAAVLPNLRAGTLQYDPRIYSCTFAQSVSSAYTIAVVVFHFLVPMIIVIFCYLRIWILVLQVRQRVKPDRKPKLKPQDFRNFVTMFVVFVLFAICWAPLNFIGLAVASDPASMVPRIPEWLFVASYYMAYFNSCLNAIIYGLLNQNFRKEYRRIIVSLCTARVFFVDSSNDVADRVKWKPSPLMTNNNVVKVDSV

IC50 [1] [nM] | effect on ß-arrestin recruitment [2] | EC50 [2, 9] [nM] | EC50 ([4]; EC50, cAMP accumulation) [nM] | EC50 [4, 10] [nM] | Ki ([5]; Ki) [nM] | drop in binding affinity [5] | effect on ERK activation ([6]; cells expressing MT1) | EC50 ([2]; EC50, ß-arrestin recruitment) [nM] | Ki ([5]; pKi ± S.E.M.) [nM] | EC50 ([6]; EC50, ERK activation) [nM] | EC50 ([6]; pEC50 ± S.E.M., ERK activation) [nM] | right shift of cAMP EC50 compared to Ki ([4]; MT1) [logs] | SMILES | sensitization versus combined melatonin and tamoxifen treatment [3] [fold] | sensitization versus combined melatonin and tamoxifen treatment [7] [fold] | affinity, competition binding [8] [nM]
 |  | 955 | 987 | 871 | 22 |  |  | 999 | 20 | 16 | 13.8 |  | CC/C(=C(\c1ccccc1)c1ccc(OCCN(C)CCCCCC(=O)NCCCOc2ccc3[nH]cc(CCNC(C)=O)c3c2)cc1)c1ccccc1 [16b, (Z)-N-(3-((3-(2-Acetamidoethyl)-1H-indol-5-yl)oxy)propyl)-6-((2-(4-(1,2-diphenylbut-1-en-1-yl)phenoxy)ethyl)(methyl)amino)hexanamide] |  |  | 
~100 |  | 1070 |  | 209 | 2.8 |  |  | 2230 | 2.63 | 161 | 61.7 | 2 | CC/C(=C(\c1ccccc1)c1ccc(OCCN(C)C(=O)CCCCCCOc2ccc3[nH]cc(CCNC(C)=O)c3c2)cc1)c1ccccc1 [19c, (Z)-7-((3-(2-Acetamidoethyl)-1H-indol-5-yl)oxy)-N-(2-(4-(1,2-diphenylbut-1-en-1-yl)phenoxy)ethyl)-N-methylheptanamide] |  |  | 

The remaining lines, values behind:

SMILES | IC50 [1] [nM] | effect on ß-arrestin recruitment [2] | EC50 [2, 9] [nM] | EC50 ([4]; EC50, cAMP accumulation) [nM] | EC50 [4, 10] [nM] | Ki ([5]; Ki) [nM] | drop in binding affinity [5] | effect on ERK activation ([6]; cells expressing MT1) | EC50 ([2]; EC50, ß-arrestin recruitment) [nM] | Ki ([5]; pKi ± S.E.M.) [nM] | EC50 ([6]; EC50, ERK activation) [nM] | EC50 ([6]; pEC50 ± S.E.M., ERK activation) [nM] | right shift of cAMP EC50 compared to Ki ([4]; MT1) [logs] | sensitization versus combined melatonin and tamoxifen treatment [3] [fold] | sensitization versus combined melatonin and tamoxifen treatment [7] [fold] | affinity, competition binding [8] [nM]
CC/C(=C(\c1ccccc1)c1ccc(OCCN(C)C(=O)CCCCOc2ccc3[nH]cc(CCNC(C)=O)c3c2)cc1)c1ccccc1 [19a, (Z)-5-((3-(2-Acetamidoethyl)-1H-indol-5-yl)oxy)-N-(2-(4-(1,2-diphenylbut-1-en-1-yl)phenoxy)ethyl)-N-methylpentanamide] | ~100 | no effect | 977 | > 10000 | 8910 | > 10000 | > 1,000 fold | no effect |  |  |  |  |  | 3.0 |  | 
CC/C(=C(\c1ccccc1)c1ccc(OCCN(C)CCOCCOCCOc2ccc3[nH]cc(CCNC(C)=O)c3c2)cc1)c1ccccc1 [compound 21, (Z)-N-(2-(5-(2-(2-(2-((2-(4-(1,2-Diphenylbut-1-en-1-yl)phenoxy)ethyl)(methyl)amino)ethoxy)ethoxy)ethoxy)-1H-indol-3-yl)ethyl)acetamide] |  | clear partial effect | 138 | 74.3 | 63.1 | 6.5 |  |  | 197 | 6.17 | 36 | 28.2 |  |  | 3.6 | 
COc1ccc2[nH]cc(CCNC(C)=O)c2c1 [MLT, melatonin] |  |  |  |  |  |  |  |  |  |  |  |  |  |  |  | 8.6
CC/C(=C(\c1ccccc1)c1ccc(OCCN(C)C(=O)CCCCCOc2ccc3[nH]cc(CCNC(C)=O)c3c2)cc1)c1ccccc1 [compound 19b, (Z)-6-((3-(2-Acetamidoethyl)-1H-indol-5-yl)oxy)-N-(2-(4-(1,2-diphenylbut-1-en-1-yl)phenoxy)ethyl)-N-methylhexanamide] |  |  | 3890 | 389 | 372 | 3150 | > 1,000 fold |  | 4660 | 2950 | 178 | 120 |  |  |  | 
